We go through 5 molecules from publication PMC5564600 (Oncotarget, 2017).

Holding throughout (assay): biochemical
Common to all, as to format: binding

The target in test [1] is T1, panel of 442 kinases (Homo sapiens, UniProt Q02156).
T1 construct: purchased Ambit Biosciences (scanMAXX KINOMEscan)
T1 sequence (Q02156 1-737): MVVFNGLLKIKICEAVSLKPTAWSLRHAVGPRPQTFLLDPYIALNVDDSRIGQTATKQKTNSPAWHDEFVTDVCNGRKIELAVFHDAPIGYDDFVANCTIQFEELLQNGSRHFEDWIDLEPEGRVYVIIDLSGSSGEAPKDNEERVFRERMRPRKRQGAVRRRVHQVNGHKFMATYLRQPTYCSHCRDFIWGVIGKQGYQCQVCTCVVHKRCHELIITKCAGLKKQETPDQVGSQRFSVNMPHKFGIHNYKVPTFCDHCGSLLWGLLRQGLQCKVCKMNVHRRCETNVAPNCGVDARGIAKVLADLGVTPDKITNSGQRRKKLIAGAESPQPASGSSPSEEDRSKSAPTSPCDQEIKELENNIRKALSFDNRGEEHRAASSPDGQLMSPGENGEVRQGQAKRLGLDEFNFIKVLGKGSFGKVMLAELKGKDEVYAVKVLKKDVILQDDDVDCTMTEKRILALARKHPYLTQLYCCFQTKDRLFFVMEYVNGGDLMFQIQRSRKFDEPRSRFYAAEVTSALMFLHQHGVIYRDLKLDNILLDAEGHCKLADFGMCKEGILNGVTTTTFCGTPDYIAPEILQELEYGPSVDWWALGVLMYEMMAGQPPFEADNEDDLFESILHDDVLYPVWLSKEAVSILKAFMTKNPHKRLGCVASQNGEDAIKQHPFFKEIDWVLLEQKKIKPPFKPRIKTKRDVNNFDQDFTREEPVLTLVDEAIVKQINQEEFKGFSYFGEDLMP
Particulars: kinase PRKCE; for remaining activity at 1 µM: read-out: PRKCE (% of control at 1 µM).

Test [2] has as its target T2, panel of 442 kinases (Homo sapiens, UniProt P42685).
T2 construct: purchased Ambit Biosciences (scanMAXX KINOMEscan)
The note with it: kinase FRK; for remaining activity at 1 µM: read-out: % of control at 1 µM.

For test [3], the target named is T3, panel of 442 kinases (Homo sapiens, UniProt Q14004).
T3 construct: purchased Ambit Biosciences (scanMAXX KINOMEscan)
T3 sequence (Q14004 whole entry): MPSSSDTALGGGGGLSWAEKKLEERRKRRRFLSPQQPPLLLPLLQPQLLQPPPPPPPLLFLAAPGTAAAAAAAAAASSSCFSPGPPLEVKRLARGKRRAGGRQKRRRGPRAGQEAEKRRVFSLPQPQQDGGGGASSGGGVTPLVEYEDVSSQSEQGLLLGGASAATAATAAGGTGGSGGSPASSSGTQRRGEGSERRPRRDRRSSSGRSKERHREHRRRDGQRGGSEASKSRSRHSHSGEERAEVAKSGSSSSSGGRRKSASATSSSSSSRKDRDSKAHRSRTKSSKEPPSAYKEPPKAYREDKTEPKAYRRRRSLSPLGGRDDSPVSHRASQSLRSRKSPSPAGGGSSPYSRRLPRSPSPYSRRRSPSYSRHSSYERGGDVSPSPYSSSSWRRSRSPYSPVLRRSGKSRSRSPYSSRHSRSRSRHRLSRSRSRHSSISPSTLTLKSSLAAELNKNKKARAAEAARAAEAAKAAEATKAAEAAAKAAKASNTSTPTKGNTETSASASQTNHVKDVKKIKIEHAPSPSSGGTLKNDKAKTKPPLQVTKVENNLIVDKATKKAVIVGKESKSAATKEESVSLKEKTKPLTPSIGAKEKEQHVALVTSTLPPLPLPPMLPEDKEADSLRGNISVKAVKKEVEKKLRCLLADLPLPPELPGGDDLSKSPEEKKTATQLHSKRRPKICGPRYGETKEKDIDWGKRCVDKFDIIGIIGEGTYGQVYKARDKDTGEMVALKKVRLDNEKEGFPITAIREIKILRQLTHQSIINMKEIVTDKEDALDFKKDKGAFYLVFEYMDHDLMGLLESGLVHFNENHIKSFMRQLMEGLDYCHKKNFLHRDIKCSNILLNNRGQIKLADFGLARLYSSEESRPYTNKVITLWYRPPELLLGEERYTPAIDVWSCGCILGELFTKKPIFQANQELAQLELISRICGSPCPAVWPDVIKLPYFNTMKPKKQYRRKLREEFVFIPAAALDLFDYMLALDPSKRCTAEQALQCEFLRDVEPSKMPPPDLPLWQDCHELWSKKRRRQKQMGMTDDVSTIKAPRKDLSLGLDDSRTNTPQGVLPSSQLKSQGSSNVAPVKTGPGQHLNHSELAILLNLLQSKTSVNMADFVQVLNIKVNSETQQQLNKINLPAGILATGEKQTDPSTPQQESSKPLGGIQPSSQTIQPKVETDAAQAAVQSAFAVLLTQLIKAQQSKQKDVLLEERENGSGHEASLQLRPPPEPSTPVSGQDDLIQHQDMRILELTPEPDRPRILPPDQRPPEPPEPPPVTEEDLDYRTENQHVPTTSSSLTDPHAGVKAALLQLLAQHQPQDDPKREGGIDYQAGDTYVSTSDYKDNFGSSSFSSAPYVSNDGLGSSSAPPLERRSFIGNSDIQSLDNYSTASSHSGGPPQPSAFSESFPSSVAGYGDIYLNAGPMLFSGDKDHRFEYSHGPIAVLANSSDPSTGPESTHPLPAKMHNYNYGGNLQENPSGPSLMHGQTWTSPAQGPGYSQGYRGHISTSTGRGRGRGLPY
The note with it: for remaining activity at 1 µM: read-out: % of control at 1 µM; for remaining activity at 10 µM: read-out: % of control at 10 µM.

Test [4] concerns the target T4, panel of 442 kinases (Homo sapiens, UniProt Q9UHD2).
T4 construct: purchased Ambit Biosciences (scanMAXX KINOMEscan)
T4 sequence (Q9UHD2 1-729): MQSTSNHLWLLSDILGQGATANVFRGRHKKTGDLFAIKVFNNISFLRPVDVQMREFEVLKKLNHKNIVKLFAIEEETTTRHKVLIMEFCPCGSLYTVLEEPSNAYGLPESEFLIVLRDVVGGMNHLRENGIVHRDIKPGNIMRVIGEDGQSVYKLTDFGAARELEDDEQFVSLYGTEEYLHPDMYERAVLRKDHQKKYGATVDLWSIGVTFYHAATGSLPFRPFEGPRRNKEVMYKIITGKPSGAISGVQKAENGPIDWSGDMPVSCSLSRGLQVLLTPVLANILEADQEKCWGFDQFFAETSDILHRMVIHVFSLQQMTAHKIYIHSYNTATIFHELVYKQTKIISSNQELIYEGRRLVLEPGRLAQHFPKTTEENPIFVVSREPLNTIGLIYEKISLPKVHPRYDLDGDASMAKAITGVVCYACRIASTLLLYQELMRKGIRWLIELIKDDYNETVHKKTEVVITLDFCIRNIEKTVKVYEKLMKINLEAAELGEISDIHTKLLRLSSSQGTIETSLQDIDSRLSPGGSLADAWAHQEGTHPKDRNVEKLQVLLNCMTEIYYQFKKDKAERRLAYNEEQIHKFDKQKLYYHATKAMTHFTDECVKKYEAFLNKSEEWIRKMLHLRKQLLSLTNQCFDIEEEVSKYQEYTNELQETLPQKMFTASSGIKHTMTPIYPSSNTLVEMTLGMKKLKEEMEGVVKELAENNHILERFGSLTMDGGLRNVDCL
Particulars: kinase TBK1; for remaining activity at 1 µM: read-out: TBK1 (% of control at 1 µM).

The target in test [5] is T5, panel of 442 kinases (Homo sapiens, UniProt Q09013).
T5 construct: purchased Ambit Biosciences (scanMAXX KINOMEscan)
T5 sequence (Q09013 1-629): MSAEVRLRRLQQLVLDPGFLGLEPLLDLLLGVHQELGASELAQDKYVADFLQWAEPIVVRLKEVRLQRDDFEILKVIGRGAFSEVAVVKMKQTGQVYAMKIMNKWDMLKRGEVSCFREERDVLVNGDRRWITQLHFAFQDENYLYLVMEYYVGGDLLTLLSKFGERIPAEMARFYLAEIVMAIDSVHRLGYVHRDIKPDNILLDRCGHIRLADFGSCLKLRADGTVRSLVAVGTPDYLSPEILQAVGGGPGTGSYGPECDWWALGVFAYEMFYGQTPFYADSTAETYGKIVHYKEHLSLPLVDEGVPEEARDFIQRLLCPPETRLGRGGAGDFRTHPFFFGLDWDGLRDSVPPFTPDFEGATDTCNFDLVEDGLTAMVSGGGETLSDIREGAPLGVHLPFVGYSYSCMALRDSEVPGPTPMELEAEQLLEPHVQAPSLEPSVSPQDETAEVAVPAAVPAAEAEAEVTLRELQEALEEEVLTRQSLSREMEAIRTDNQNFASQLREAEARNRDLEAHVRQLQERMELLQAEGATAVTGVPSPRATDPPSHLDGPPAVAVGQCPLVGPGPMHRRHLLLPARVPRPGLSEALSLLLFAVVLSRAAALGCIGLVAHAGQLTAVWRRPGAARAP
The note with it: DMPK; for remaining activity at 1 µM: read-out: % of control at 1 µM.

Test [6] deals with T6, panel of 442 kinases (Homo sapiens, UniProt Q9UEE5).
T6 construct: purchased Ambit Biosciences (scanMAXX KINOMEscan)
T6 sequence (Q9UEE5 1-414): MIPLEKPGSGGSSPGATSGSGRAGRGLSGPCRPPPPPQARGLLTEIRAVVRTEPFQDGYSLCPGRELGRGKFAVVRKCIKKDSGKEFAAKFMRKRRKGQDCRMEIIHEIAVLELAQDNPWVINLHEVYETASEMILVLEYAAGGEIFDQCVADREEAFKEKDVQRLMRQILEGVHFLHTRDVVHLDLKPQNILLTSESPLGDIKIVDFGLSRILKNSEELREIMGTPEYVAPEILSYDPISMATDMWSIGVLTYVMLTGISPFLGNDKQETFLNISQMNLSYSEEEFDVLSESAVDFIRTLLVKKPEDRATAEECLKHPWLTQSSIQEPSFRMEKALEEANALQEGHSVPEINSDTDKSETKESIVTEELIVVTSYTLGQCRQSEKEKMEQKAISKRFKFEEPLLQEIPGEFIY
The note with it: DRAK1; for remaining activity at 1 µM: read-out: % of control at 1 µM.

Test [7] concerns the target T7, panel of 442 kinases (Homo sapiens, UniProt P41240).
T7 construct: purchased Ambit Biosciences (scanMAXX KINOMEscan)
The note with it: CSK; for remaining activity at 1 µM: read-out: % of control at 1 µM.

The mark [8] stands for this setting: 10 µM, read-out: % of control at 10 µM.

Like-named read-outs stand apart in the source and are kept apart here.

T7 sequence (P41240 whole entry): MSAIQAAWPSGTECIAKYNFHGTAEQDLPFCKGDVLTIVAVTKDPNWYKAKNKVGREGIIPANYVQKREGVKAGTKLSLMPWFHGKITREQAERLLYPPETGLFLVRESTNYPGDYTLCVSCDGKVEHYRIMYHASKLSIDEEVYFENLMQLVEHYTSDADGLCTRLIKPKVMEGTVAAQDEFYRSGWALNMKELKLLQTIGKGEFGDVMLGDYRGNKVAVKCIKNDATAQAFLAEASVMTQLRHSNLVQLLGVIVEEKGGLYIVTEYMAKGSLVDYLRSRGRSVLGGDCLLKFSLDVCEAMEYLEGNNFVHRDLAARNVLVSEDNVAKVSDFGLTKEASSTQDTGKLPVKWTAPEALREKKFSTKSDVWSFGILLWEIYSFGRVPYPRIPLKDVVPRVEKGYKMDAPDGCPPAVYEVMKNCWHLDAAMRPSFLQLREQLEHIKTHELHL
T2 sequence (P42685 whole entry): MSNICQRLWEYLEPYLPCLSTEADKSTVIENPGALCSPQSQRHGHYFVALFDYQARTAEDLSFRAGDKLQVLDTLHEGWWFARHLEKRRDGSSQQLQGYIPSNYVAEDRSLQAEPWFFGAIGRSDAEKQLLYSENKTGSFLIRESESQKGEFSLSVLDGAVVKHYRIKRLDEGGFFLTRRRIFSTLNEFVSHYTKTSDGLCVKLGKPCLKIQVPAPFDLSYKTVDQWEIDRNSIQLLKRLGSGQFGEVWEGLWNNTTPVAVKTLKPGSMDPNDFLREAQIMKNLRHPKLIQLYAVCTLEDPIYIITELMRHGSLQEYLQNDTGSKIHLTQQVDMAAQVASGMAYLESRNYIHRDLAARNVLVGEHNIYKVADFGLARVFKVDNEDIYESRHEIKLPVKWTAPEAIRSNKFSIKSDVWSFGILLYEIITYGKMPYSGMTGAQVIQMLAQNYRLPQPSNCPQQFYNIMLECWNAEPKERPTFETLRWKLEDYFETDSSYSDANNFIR

Turning to `COc1ncc(-c2ccc3nccc(-c4ccnnc4)c3c2)cc1NS(=O)(=O)c1ccc(F)cc1F` [Omipalisib], the remaining activity at 1 µM in test [1] was 100%; in test [2], 98%; in test [3] (CDC2L5, 1 µM), 100%; in test [4], 100%; in test [5], 100%; in test [6], 100%. Besides, the remaining activity at 1 µM in test [7] is 98%.
For `Cn1c(=O)n(-c2ccc(C(C)(C)C#N)cc2)c2c3cc(-c4cnc5ccccc5c4)ccc3ncc21` [Dactolisib, 2-methyl-2-[4-(3-methyl-2-oxo-8-quinolin-3-yl-2,3-dihydroimidazo[4,5-c]quinolin-1-yl)-phenyl] propionitrile], the remaining activity at 1 µM in test [1] amounted to 78%; in test [2], 85%; in test [3] (CDC2L5, 1 µM) it was 87%; in test [4], 93%; in test [5], 88%; in test [6] it was 91%. Moreover, in test [7], the remaining activity at 1 µM stood at 81%.
With `CS(=O)(=O)N1CCN(Cc2cc3nc(-c4cccc5[nH]ncc45)nc(N4CCOCC4)c3s2)CC1` [Pictilisib, 2-(1H-indazol-4-yl)-6-(4-methanesulfonyl-piperazin-1-ylmethyl)-4-morpholin-4-yl-t hieno[3,2-d]pyrimidine], the remaining activity at 1 µM in test [3] (CDC2L5, 1 µM) was 70%. Further, in test [3] (CDC2L5), the remaining activity at 10 µM came out at 100%.
For `Nc1cc(C(F)(F)F)c(-c2cc(N3CCOCC3)nc(N3CCOCC3)n2)cn1` [Buparlisib], the remaining activity at 1 µM in test [1] came out at 97%; in test [2] it was 100%; in test [3] (CDC2L5, 1 µM), 75%; in test [4] it was 99%; in test [5], 79%; in test [6], 100%. Moreover, the remaining activity at 1 µM in test [7] is 94%. Further, the remaining activity at 10 µM in test [1] (10 µM, read-out: PRKCE (% of control at 10 µM)) is 100%; in test [2] (setting [8]), 100%; in test [3] (CDC2L5) it was 100%; in test [4] (10 µM, read-out: TBK1 (% of control at 10 µM)), 100%; in test [5] (setting [8]) it was 83%; in test [6] (setting [8]), 100%. Further, the remaining activity at 10 µM in test [7] (setting [8]) stood at 100%.
With `FC(F)c1nc2ccccc2n1-c1nc(N2CCOCC2)nc(N2CCOCC2)n1` [ZSTK474, 2-(difluoromethyl)-1-[4,6-di(4-morpholinyl)-1,3,5-triazin-2-yl]-1H-benzimidazole], the remaining activity at 1 µM in test [1] turned out to be 100%; in test [2], 83%; in test [3] it was 100%; in test [4], 100%; in test [5], 100%; in test [6], 90%. In addition, the remaining activity at 1 µM in test [7] turned out to be 89%.
